Patent US20210293769A1, “METHOD FOR CULTURING CANCER TISSUE OR TISSUE ANALOGOUS TO CANCER TISSUE” (Chugai Seiyaku Kabushiki Kaisha, priority 2018, published 2021)

What was measured:
Assay type in all cases: cell-based, human
PLR123 organoids [1] = assay: Regrowth of SN-38-treated PLR123 organoids on re-culture, CellTiter-Glo 3D Cell Viability Assay; conditions: BSO 200 μM and/or AUR 200 nM added upon re-culture of SN-38-treated organoids; n=4, FIG. 13
Description: Specifically, 7-ethyl-10-hydroxycamptothecin (SN-38, Cat #H0165, Merck) was added to the organoids (day 10) prepared in Example 1-1 at a concentration of 300 nM and culture was carried out for three days (SN-38 treatment). After culturing, organoids were recovered by decomposing Matrigel with Dispase I (Cat #386-02271, Fujifilm Wako Pure Chemical Corporation), washed with Cellotion (Cat #CB051, Nippon Zenyaku Kogyo Co., Ltd.), and the washed organoids were suspended in a new Matrigel and dispensed at 20 μL/well into a 96-well plate in which 20-30 μL/well of Matrigel was gelled beforehand. By centrifuging immediately after dispensing, the organoids were aligned on a single plane, making it easier to observe under a microscope. After gelling Matrigel at 37° C., 200 μL/well of an organoid culture medium (Example 1-1) was added and re-culture was carried out at 37° C. in a 5% CO2 environment.
In order to confirm the contribution of GPX1 and GPX2 towards the regrowth of organoids, the gamma-glutamylcysteine synthetase inhibitor L-buthionine-sulfoximine (BSO, Cat #B2515, Merck, 200 μM) and the thioredoxin reductase inhibitor auranofin (AUR, Cat #A6733, Merck, 200 nM) were added upon re-culture in the re-culture method of Example 2-1, and cell proliferation was measured by CellTiter-Glo 3D Cell Viability Assay (FIG. 12).

LGR5 = assay: FACS measurement of LGR5 expression in organoids; conditions: organoids immediately after SN-38 treatment; FIG. 8
Description: […] […] […] The resulting cells were reacted with 2 μg/mL anti-LGR5 antibody (clone 2L36 (Stem Cells, 30, 2631-2644 (2012))) or control mouse IgG2a antibody (clone MG2a-53, Cat #401502, BioLegend) at 4° C. for 1 hour, and then reacted with a PE-labeled secondary antibody (Cat #P-21139, Thermo Fisher Scientific) for 30 minutes at 4° C. Then dead cells were stained with 7-AAD Viability Dye (Cat #A07704, Beckman Coulter) and measured with a flow cytometer (BD FACSAria III, BD Biosciences). PBS containing 2% fetal bovine serum and 0.1% NaN3 was used as the buffer. Data were analyzed using BD FACSDiva (version 8.0.1, BD Biosciences) and FlowJo (version 7.6.5, BD Biosciences).

PLR123 organoids [2] = assay: Pathological (structural) analysis of organoids after SN-38 treatment; conditions: after 300 nM SN-38 for three days; new luminal structure formed from surviving cells during re-culture; FIG. 7
Description: In order to observe the structure of the organoids produced in Example 1-1 in detail, a pathological analysis was performed according to a previous report (J. Toxicol. Pathol. 31, 81-85 (2018)). Specifically, after removing the culture supernatant from each of the three-dimensional cultures (day 7, day 10, day 12, and day 13), 4% paraformaldehyde/phosphate buffer (Cat #09154-14, Nacalai Tesque) was added, and fixation was carried out at room temperature for 30 minutes. Matrigel was decomposed by pipetting, and organoids were collected in a centrifuge tube and washed. Subsequently, the organoids were suspended in a warmed 2% aqueous agarose solution (agarose, Type IX, Cat #A5030, Merck), centrifuged, and then cooled on ice to gel the agarose. This was treated by the AMeX method and embedded in paraffin. Paraffin blocks were sliced and stained with hematoxylin and eosin (HE) or Alcian blue-Periodic acid-Schiff (AB-PAS) by standard methods. Further, anti-LGR5 antibody (clone 2U2E-2 (Stem Cells, 30, 2631-2644 (2012))) and anti-Ki-67 antibody (clone MIB-1, Cat #M7240, Agilent) were used for immunofluorescent staining of the paraffin block sections. […]
The structure of the regrowing organoids was analyzed by pathological analysis in the same manner as in Example 1-3. […]

GPX2 [3] = assay: RNA-seq gene expression analysis of SN-38-treated organoids; conditions: organoids day 10 treated with 300 nM SN-38 for three days vs untreated organoids; n=3, FIG. 10
Description: (§1) The gene expression of the organoids prepared in Example 1-1 was analyzed by RNA-seq. First, total RNA was prepared from 2D-cultured cells and 3D-cultured organoids (day 10) cultured in Example 1-1 using TRIzol Reagent (Cat #15596018, Thermo Fisher Scientific). The quality of the purified total RNA was verified through RNA integrity number (RIN) measured using an Agilent 2100 Bioanalyzer (Agilent) to confirm that the RIN was greater than 9. Next, cDNAs were synthesized and amplified from 1 ng of total RNA using the SMART-Seq v4 Ultra Low Input RNA Kit for Sequencing (Takara Bio). Subsequently, a library was prepared using the Nextera XT DNA Library Prep kit (Illumina), and sequenced at 75 bp paired-end reads using the NextSeq500 system (Illumina). The obtained sequence information was mapped to NCBI RefSeq transcript sequence using RSEM software (v1.2.31), and the gene expression level was calculated by FPKM (Fragments Per Kilobase of exon model per Million mapped reads).
(§2) Gene expression analysis was performed on the organoids of Example 1-1 (day 10) and the SN-38-treated organoids of Example 2-1 using RNA-seq in the same manner as in Example 1-2 (n=3).

GPX1 [4] = assay: as above; conditions: organoids day 10 treated with 300 nM SN-38 for three days vs untreated organoids; n=3, FIG. 10
Description: as §1, §2

GPX2 [5] = assay: IHC protein expression analysis of organoids; conditions: immediately after 300 nM SN-38 treatment; expression continued on day 2 of regrowth; FIG. 11
Description: (§3) The protein expression of GPX1 (Uniprot ID: P07203, Refseq accession No. NP_000572) and GPX2 (Uniprot ID: P18283, Refseq accession No. NP_002074) was analyzed by IHC. Using an anti-GPX1 antibody (Cat #ab22604, Abcam, 0.5 ng/mL) and an anti-GPX2 antibody (Cat #ab137431, Abcam, 0.5 ng/mL) with the Envision system (Cat #K4003, Agilent) and peroxidase-diaminobenzidine reaction, the organoids of Example 1-1 (day 10), the SN-38-treated organoids of Example 2-1, and the regrowing organoids of Example 2-1 (day 2, day 6) were each stained. The results of IHC analysis confirmed that the expression of GPX1 and GPX2 increased immediately after the treatment with SN-38 and expression continued even on day 2 of regrowth (FIG. 11).

GPX1 [6] = assay: IHC protein expression analysis of organoids; conditions: immediately after 300 nM SN-38 treatment; expression continued on day 2 of regrowth; FIG. 11
Description: as §3

Row | Structure (SMILES) | organoid regrowth (cell proliferation) (PLR123 organoids [1]) | LGR5 expression (FACS) (LGR5) | organoid structure (PLR123 organoids [2]) | expression of GPX2 (RNA-seq) (GPX2 [3]) | expression of GPX1 (RNA-seq) (GPX1 [4]) | protein expression of GPX2 (IHC) (GPX2 [5]) | protein expression of GPX1 (IHC) (GPX1 [6])
1 | CC(=O)OC[C@H]1O[C@@H]([S-])[C@H](OC(C)=O)[C@@H](OC(C)=O)[C@@H]1OC(C)=O.CCP(CC)CC.[Au+] [AUR, auranofin] | suppressed only when both inhibitors were used in combination |  |  |  |  |  | 
2 | CCCCS(=N)(=O)CCC(N)C(=O)O [BSO, L-buthionine-sulfoximine] | suppressed only when both inhibitors were used in combination |  |  |  |  |  | 
3 | CCc1c2c(nc3ccc(O)cc13)-c1cc3c(c(=O)n1C2)COC(=O)[C@]3(O)CC [SN-38, 7-ethyl-10-hydroxycamptothecin] |  | almost no LGR5 expression was observed | once disrupted | increased by two-fold or more | increased by two-fold or more | increased | increased
